Assay: Measurement of circular dichroism (mean residue ellipticity at 222 nm)
Assay type: physicochemical
Conditions: 32° C.
From the text: In general, the structure of a polypeptide in an aqueous buffered solution is in constant flux between portions thereof being random coil and alpha-helix configurations. For the polypeptides used in the following examples, the predominant structure is a random coil since the alpha-helix configuration is unstable in the absence of bound surfactant. According to the present invention adding surfactant to an aqueous solution of a polypeptide stabilizes the alpha-helix configuration. Circular dichroism is a measurement of the amount of the alpha-helix configured polypeptide present in the solution. Thus, circular dichroism provides an indirect measurement of the degree of binding of the surfactant to the polypeptide. (See, for example, Epand R. M., Epand R. F., Orlowski R. C., Schuleter R. J., Boni L. T. and Hui S. W., Biochemistry 22, 5074-5084 (1983); Hui, S. W., Epand R. M., Dell K. R., Epand R. F. and Orlowski R. C., Biochimica Biophysica Acta 772, 264-272 (1984); Epand R. M., Epand R. F., and Orlowski R. C., International Journal Peptide Protein Research 25 105-111; Epand R. M., Epand R. F., Orlowski R. C., Seyler J. K. and Colescott R. L., Biochemistry 25, 1964-1968; Epand R. M., Seyler J. K. and Orlowski R. C., European Journal Biochemistry 159, 125-127 (1986); Wiersema P. H., Loeb A. L. and Overbeek, J., Colloid Interface Science 22, 78-99 (1966)).
The surfactant/peptide circular dichroism (CD) spectra were obtained in a 2 mm path-length cell (110-Q-2 Model, AVIV, Lakewood, N.J.) at 32° C. The cell was initially loaded with 0.60 mL of a solution containing about 0.25 mg/mL of the peptide in 10 mM sodium chloroacetate (pH 3.5) or 10 mM sodium borate (pH 9.0). The buffers were selected to minimize the effect of the temperature on the pH of the solution and to minimize light absorption, thereby optimizing the signal-to-noise ratio (SNR). The peptide concentration was determined by spectrophotometry, with log-log correction for light scattering. The surfactant concentration was increased step-wise by titration of concentrated surfactant stock directly into the CD cell, followed by eight inversions of the cell, with the air bubble providing the mixing turbulence. After mixing, the cell was placed into the AVIV 62 CD spectrometer (AVIV, Lakewood, N.J.). In order to approximate temperature and chemical equilibrium, the sample remained in the spectrometer 5 minutes before a reading was taken. The CD spectrum was taken using a band pass of 1 nm, a data interval of 1 nm, and a data averaging time of 10 seconds. The mean residue ellipticity is the ellipticity divided by the path length in cm times the amino acid residue concentration in decimoles/cm^3. See Methods in Enzymology, Vol 130, pp 208-269, Yang et al, "Calculation of Protein Conformation from Circular Dichroism" (1986).
The measurement procedures described above were conducted on an aqueous solution of the protein insulinotropin, with TWEEN® 20 (MW=1126 g/mol) as the surfactant, with the following modifications. The insulinotropin donor solution concentration was 0.12 mg/mL. One test was run in 10 mM sodium borate at pH 9.0 and another test in 10 mM sodium chloroacetate at pH 3.5.
Fractional changes (%δ) are defined as the difference between the reading at a given surfactant concentration (Ec) minus the reading at zero surfactant (E0), the quantity divided by the difference between the reading at saturated surfactant concentration (Es) minus the reading at zero surfactant (E0), i. e. %δ=(Ec -E0)/(Es-E0).
The measurement procedures described earlier were conducted on an aqueous solution of insulinotropin as the agent, and TWEEN® 40 (molecular weight 1282 g/mol) as the surfactant with the following changes. The insulinotropin concentration was initially 0.29 mg/mL, and 0.21 mg/mL after the final TWEEN® 40 addition and the temperature was held at 32° C. Two tests were conducted at two different concentrations of TWEEN® 40. […]

## Salmon Calcitonin [reference compound]
pH 3.5, 12 mM sodium chloroacetate, dodecyl sulfobetaine 0, calcitonin 0.087 mM
  Ellipticity (mean residue at 222 nm): -4052 deg-cm^2 /dmol
pH 3.5, 12 mM sodium chloroacetate, dodecyl sulfobetaine 2.44 mM, calcitonin 0.085 mM
  Ellipticity (mean residue at 222 nm): -4270 deg-cm^2 /dmol
pH 3.5, 12 mM sodium chloroacetate, dodecyl sulfobetaine 4.76 mM, calcitonin 0.083 mM
  Ellipticity (mean residue at 222 nm): -7984 deg-cm^2 /dmol
pH 3.5, 12 mM sodium chloroacetate, dodecyl sulfobetaine 5.52 mM, calcitonin 0.082 mM
  Ellipticity (mean residue at 222 nm): -8744 deg-cm^2 /dmol
pH 3.5, 12 mM sodium chloroacetate, dodecyl sulfobetaine 6.25 mM, calcitonin 0.081 mM
  Ellipticity (mean residue at 222 nm): -9436 deg-cm^2 /dmol
pH 3.5, 12 mM sodium chloroacetate, dodecyl sulfobetaine 7.69 mM, calcitonin 0.080 mM
  Ellipticity (mean residue at 222 nm): -10475 deg-cm^2 /dmol
pH 3.5, 12 mM sodium chloroacetate, dodecyl sulfobetaine 9.09 mM, calcitonin 0.079 mM
  Ellipticity (mean residue at 222 nm): -11072 deg-cm^2 /dmol
pH 3.5, 12 mM sodium chloroacetate, dodecyl sulfobetaine 10.4 mM, calcitonin 0.078 mM
  Ellipticity (mean residue at 222 nm): -11460 deg-cm^2 /dmol
pH 3.5, 12 mM sodium chloroacetate, dodecyl sulfobetaine 13.0 mM, calcitonin 0.076 mM
  Ellipticity (mean residue at 222 nm): -11924 deg-cm^2 /dmol
pH 3.5, 12 mM sodium chloroacetate, dodecyl sulfobetaine 15.5 mM, calcitonin 0.073 mM
  Ellipticity (mean residue at 222 nm): -12070 deg-cm^2 /dmol
pH 3.5, 12 mM sodium chloroacetate, dodecyl sulfobetaine 21.1 mM, calcitonin 0.069 mM
  Ellipticity (mean residue at 222 nm): -12285 deg-cm^2 /dmol
pH 3.5, 12 mM sodium chloroacetate, dodecyl sulfobetaine 27.7 mM, calcitonin 0.063 mM
  Ellipticity (mean residue at 222 nm): -12133 deg-cm^2 /dmol
pH 5.0, 4 mM piperazine-HCl, dodecyl sulfobetaine 0, calcitonin 0.076 mM
  Ellipticity (mean residue at 222 nm): -3919 deg-cm^2 /dmol
pH 5.0, 4 mM piperazine-HCl, dodecyl sulfobetaine 0.83 mM, calcitonin 0.076 mM
  Ellipticity (mean residue at 222 nm): -3950 deg-cm^2 /dmol
pH 5.0, 4 mM piperazine-HCl, dodecyl sulfobetaine 1.64 mM, calcitonin 0.075 mM
  Ellipticity (mean residue at 222 nm): -4011 deg-cm^2 /dmol
pH 5.0, 4 mM piperazine-HCl, dodecyl sulfobetaine 3.23 mM, calcitonin 0.074 mM
  Ellipticity (mean residue at 222 nm): -5209 deg-cm^2 /dmol
pH 5.0, 4 mM piperazine-HCl, dodecyl sulfobetaine 4.76 mM, calcitonin 0.073 mM
  Ellipticity (mean residue at 222 nm): -7108 deg-cm^2 /dmol
pH 5.0, 4 mM piperazine-HCl, dodecyl sulfobetaine 6.25 mM, calcitonin 0.072 mM
  Ellipticity (mean residue at 222 nm): -8348 deg-cm^2 /dmol
pH 5.0, 4 mM piperazine-HCl, dodecyl sulfobetaine 7.69 mM, calcitonin 0.071 mM
  Ellipticity (mean residue at 222 nm): -9127 deg-cm^2 /dmol
pH 5.0, 4 mM piperazine-HCl, dodecyl sulfobetaine 9.77 mM, calcitonin 0.069 mM
  Ellipticity (mean residue at 222 nm): -9915 deg-cm^2 /dmol
pH 5.0, 4 mM piperazine-HCl, dodecyl sulfobetaine 12.4 mM, calcitonin 0.067 mM
  Ellipticity (mean residue at 222 nm): -10469 deg-cm^2 /dmol
pH 5.0, 4 mM piperazine-HCl, dodecyl sulfobetaine 18.4 mM, calcitonin 0.062 mM
  Ellipticity (mean residue at 222 nm): -10999 deg-cm^2 /dmol
pH 5.0, 4 mM piperazine-HCl, dodecyl sulfobetaine 26.4 mM, calcitonin 0.056 mM
  Ellipticity (mean residue at 222 nm): -11188 deg-cm^2 /dmol
pH 5.0, 4 mM piperazine-HCl, dodecyl sulfobetaine 35.8 mM, calcitonin 0.049 mM
  Ellipticity (mean residue at 222 nm): -11051 deg-cm^2 /dmol
pH 6.5, 15 mM sodium cacodylate, dodecyl sulfobetaine 0, calcitonin 0.071 mmol/l
  Ellipticity (mean residue at 222 nm): -4569 deg-cm^2 /dmol
pH 6.5, 15 mM sodium cacodylate, dodecyl sulfobetaine 3.28 mmol/l, calcitonin 0.070 mmol/l
  Ellipticity (mean residue at 222 nm): -6725 deg-cm^2 /dmol
pH 6.5, 15 mM sodium cacodylate, dodecyl sulfobetaine 6.45 mmol/l, calcitonin 0.068 mmol/l
  Ellipticity (mean residue at 222 nm): -10182 deg-cm^2 /dmol
pH 6.5, 15 mM sodium cacodylate, dodecyl sulfobetaine 9.52 mmol/l, calcitonin 0.067 mmol/l
  Ellipticity (mean residue at 222 nm): -11095 deg-cm^2 /dmol
pH 6.5, 15 mM sodium cacodylate, dodecyl sulfobetaine 12.5 mmol/l, calcitonin 0.066 mmol/l
  Ellipticity (mean residue at 222 nm): -11386 deg-cm^2 /dmol
pH 6.5, 15 mM sodium cacodylate, dodecyl sulfobetaine 18.2 mmol/l, calcitonin 0.064 mmol/l
  Ellipticity (mean residue at 222 nm): -11744 deg-cm^2 /dmol
pH 6.5, 15 mM sodium cacodylate, dodecyl sulfobetaine 28.6 mmol/l, calcitonin 0.061 mmol/l
  Ellipticity (mean residue at 222 nm): -11862 deg-cm^2 /dmol
pH 6.5, 15 mM sodium cacodylate, dodecyl sulfobetaine 42.1 mmol/l, calcitonin 0.056 mmol/l
  Ellipticity (mean residue at 222 nm): -11844 deg-cm^2 /dmol

Reference: patent US6328728A, “Composition and method for enhancing electrotransport agent delivery” (Alza Corporation, priority 1997, dated 2001)
